Results: EP4763838A1, “COMPOUND AND USE THEREOF” (Ocean University of China, priority 2023, dated 2025)

Target: T1, BRD protein (Homo sapiens, UniProt O60885)
T1 construct: endogenous in cells; host or cells: MV-4-11
Assay: Reduction of bromodomain protein (BRD) expression levels in MV-4-11 cells (Western blot, DC50 and Dmax)
Type: cell-based
Conditions: BRD4 Western blot, GAPDH internal reference; for DC50: 24 hours of treatment, 0.1, 1, 10 and 20 µM; for Dmax: MV4-11, 24 hours of treatment, 0.1, 1, 10 and 20 µM
Description: The human […] MV-4-11 cells selected in this experiment were cultured in Iscove's Modified Dulbecco's Medium (IMDM) culture medium containing 10% fetal bovine serum (Gibco, USA) in an incubator under the conditions of at 37°C, 5% CO2 and 95% humidity. When the growth density reached 80%, a culture medium containing the compound was selected, and the cells were inoculated into a 6-well plate with a cell density of 1×10^6/ml, so that the final concentrations of the compound were 0.1, 1, 10 and 20 µM. After 24 hours of treatment, the cells were collected, washed twice with PBS and lysed with an RIPA lysis buffer containing a protease inhibitor and a phosphatase inhibitor. The lysed mixed solution was centrifuged to obtain a total protein extract. The concentration of the protein in the extract was detected by using a BCA method.
Protein electrophoresis was performed via SDS-PAGE, followed by constant-current electrotransfer at 200 mA for 150 min to transfer proteins onto a polyvinylidene fluoride (PVDF) membrane. The PVDF membrane was placed in 5% skim milk and blocked for 1 h at room temperature. BRD4 (#13440, CST) (1:1000) and C-MYC (ab32072, 1:1000) were added for incubation overnight at 4°C. The membrane was washed with Tris buffered saline Tween (TBST) for 3 times, with 10 min each time. The mixture of the membrane and a secondary antibody were incubated for 60 min at room temperature. The membrane was washed with TBST for 3 times, with 10 min each time. The ECL light-emitting liquid was dropwise added for exposure. Each sample was simultaneously detected using GAPDH protein as an internal reference. The protein profile was analyzed for grayscale values using analysis software ImageJ. The gray scale correction value of each sample was calculated by using the formula was used below: gray scale correction value = (target protein gray scale value/corresponding internal reference gray scale value) × 10^3Then, the calculated gray scale correction value was compared with a control gray scale correction value to calculate a degradation rate. Then, nonlinear curve fitting was performed on a logarithmic concentration-inhibition rate using Prism to obtain the DC50 and Dmax values of the compound.
Table 13 summarizes the evaluation of the reduction effects of protein degraders PRTB-01 to 16 on BRD protein expression levels. DC50 represents the concentration of the protein degrader when it induces 50% of the BRD protein to be degraded, with the level classified as A (DC50<1 µM), B (DC50 1 to 10 µM), or C (DC50>10 µM). Dmax represents the proportion of the maximum degree of […] protein degradation induced by the protein degrader to the total amount of BRD protein, with the level graded as A (Dmax>85%), B (Dmax85~50%), or C ([…]<50%) Table 13 Evaluation of protein degraders PRTB-01 to 16 in reducing BRD protein expression levels

DC50 [nM]	Dmax [%]	Compound
> 10000	< 50	COc1nnc(C2CCC(=O)NC2=O)cc1N1CCN(C(=O)COCCNC(=O)C[C@@H]2N=C(c3ccc(Cl)cc3)c3c(sc(C)c3C)-n3c(C)nnc32)CC1 (some centres unmarked) [PRTB-16]
< 1000	> 85	Cc1sc2c(c1C)C(c1ccc(Cl)cc1)=N[C@@H](CC(=O)NCCCCCNC(=O)COc1ccc(C3CCC(=O)NC3=O)nn1)c1nnc(C)n1-2 (some centres unmarked) [PRTB-02]
1000 to 10000	< 50	Cc1sc2c(c1C)C(c1ccc(Cl)cc1)=N[C@@H](CC(=O)NCCCC(=O)N1CCN(c3ccc(C4CCC(=O)NC4=O)nn3)CC1)c1nnc(C)n1-2 (some centres unmarked) [PRTB-04]
1000 to 10000	50 to 85	Cc1cc(N2CCN(C(=O)COCCNC(=O)C[C@@H]3N=C(c4ccc(Cl)cc4)c4c(sc(C)c4C)-n4c(C)nnc43)CC2)nnc1C1CCC(=O)NC1=O (some centres unmarked) [PRTB-09]
1000 to 10000	< 50	Cc1sc2c(c1C)C(c1ccc(Cl)cc1)=N[C@@H](CC(=O)NCCCCCCNC(=O)COc1ccc(C3CCC(=O)NC3=O)nn1)c1nnc(C)n1-2 (some centres unmarked) [PRTB-03]
< 1000	> 85	Cc1sc2c(c1C)C(c1ccc(Cl)cc1)=N[C@@H](CC(=O)NCCCCCOC1CN(c3ccc(C4CCC(=O)NC4=O)nn3)C1)c1nnc(C)n1-2 (some centres unmarked) [PRTB-12]
< 1000	> 85	Cc1sc2c(c1C)C(c1ccc(Cl)cc1)=N[C@@H](CC(=O)NCCCn1cc(C#Cc3ccc(C4CCC(=O)NC4=O)nn3)cn1)c1nnc(C)n1-2 (some centres unmarked) [PRTB-15]
1000 to 10000	50 to 85	Cc1sc2c(c1C)C(c1ccc(Cl)cc1)=N[C@@H](CC(=O)NCCOCC(=O)N1CCN(c3ccc(N4CCC(=O)NC4=O)nn3)CC1)c1nnc(C)n1-2 [PRTB-08]
> 10000	< 50	Cc1sc2c(c1C)C(c1ccc(Cl)cc1)=N[C@@H](CC(=O)NCCOCC(=O)N1CCN(c3nnc(C4CCC(=O)NC4=O)c4c3CCCC4)CC1)c1nnc(C)n1-2 (some centres unmarked) [PRTB-10]
1000 to 10000	< 50	Cc1sc2c(c1C)C(c1ccc(Cl)cc1)=N[C@@H](CC(=O)NCCCCC(=O)N1CCN(c3ccc(C4CCC(=O)NC4=O)nn3)CC1)c1nnc(C)n1-2 (some centres unmarked) [PRTB-05]
1000 to 10000	50 to 85	Cc1sc2c(c1C)C(c1ccc(Cl)cc1)=N[C@@H](CC(=O)NCCOCC(=O)N1CCN(c3ccc(C4CCC(=O)NC4=O)nn3)CC1)c1nnc(C)n1-2 (some centres unmarked) [PRTB-06]
< 1000	50 to 85	Cc1sc2c(c1C)C(c1ccc(Cl)cc1)=N[C@@H](CC(=O)NCCCn1ccc(C#Cc3ccc(C4CCC(=O)NC4=O)nn3)n1)c1nnc(C)n1-2 (some centres unmarked) [PRTB-14]
> 10000	< 50	Cc1sc2c(c1C)C(c1ccc(Cl)cc1)=N[C@@H](CC(=O)NCCOCC(=O)N1CCN(c3nnc(C4CCC(=O)NC4=O)c4ccccc34)CC1)c1nnc(C)n1-2 (some centres unmarked) [PRTB-11]
> 10000	< 50	Cc1sc2c(c1C)C(c1ccc(Cl)cc1)=N[C@@H](CC(=O)NCCCOCC(=O)N1CCN(c3ccc(C4CCC(=O)NC4=O)nn3)CC1)c1nnc(C)n1-2 (some centres unmarked) [PRTB-07]
< 1000	> 85	Cc1sc2c(c1C)C(c1ccc(Cl)cc1)=N[C@@H](CC(=O)NCCCCCNC(=O)C#Cc1ccc(C3CCC(=O)NC3=O)nn1)c1nnc(C)n1-2 (some centres unmarked) [PRTB-13]

Compound	DC50 [nM]	Dmax [%]
Cc1sc2c(c1C)C(c1ccc(Cl)cc1)=N[C@@H](CC(=O)NCCCCNC(=O)COc1ccc(C3CCC(=O)NC3=O)nn1)c1nnc(C)n1-2 (some centres unmarked) [PRTB-01]	1000 to 10000	< 50
